Test results from patent US20010051630A1, “Use of hydroxylamine derivatives, and method and preparations for increasing the tolerance of field crops against weather stresses” (priority 1997, published 2001).
Marks after values point to notes of the source that are not given here.

Tests used:
soybean cv. Bólyi 44 = assay: Drought tolerance of soybeans; format: in vivo; details: 6 days hardening; 50 mg/liter in the water; 4 days without watering, one week regeneration
Procedure: Soybeans of soybean cv. Bólyi 44 were hardened for 6 days by withholding the water. This was followed by two days of watering, and the active agent was applied in the water. The concentration of the solution of the active agent was 50 mg/liter. After a 4-day-long cease of watering and a one week regeneration period, the number of surviving plants was recorded.
Watering was ceased for 10 days for a certain group of plants in the experiment. It was observed that almost every plant perished. Each of the 4 surviving plants had previously been treated with the active agent.

bean plants (cv. Seaway) = assay: Drought tolerance of beans, part b (7 days hardening); format: in vivo; details: 7 days without water, 10 mg/liter and 100 mg/liter solution named, table does not say which
Text: Based on the experiences of our preliminary experiments, the plants were hardened before the application of the active agent by withholding the water for a few days, until the first signs of withering appeared. Then the plants were watered and the active agent was either dissolved in the water, or sprayed to the plants directly. Afterwards, the plants were subjected to different periods of drought according to the given experiment, watered again, and after a week-long regeneration period, the survival ratio was determined.
b) In this experiment, bean plants (cv. Seaway) were hardened for 7 days instead of the 5 days described in Part a. Then a 10 mg/liter and 100 mg/liter concentration solution of the active agent was applied two times a day for two days. Then 7 days without water followed, and after a week-long regeneration period, the results of the experiment were evaluated.

Soybean seeds = assay: Pearling of soybean seeds, then CSVT; format: in vivo
Procedure: (§1) In this experiment the tolerance of maize, soybean and pepper seeds treated with the active agent against cold was tested. This test imposed temperature and oxygen deficiency stresses on the seeds and was carried out according to Barla-Szabó and Dolinka CSVT (Complex Stressing Vigour Test). For a single test, two hundred seeds were soaked for 48 hours at 25° C. and another 48 hours at 5° C in 150 ml distilled water containing the active agent in 10 mg/l concentration. Following the 96 hours of soaking, the seeds were further germinated between rolled wet paper for 96 hours at 25° C. There were 25 seeds in each roll, the rolls were placed vertically into containers and covered with a plastic bag in order to reduce evaporation. During the whole procedure the seeds were kept in darkness.
(§2) At the end of the experiment the number of normally developing and ungerminated seeds were recorded. The length of the normal seedlings was measured and the average length of the five longest seedlings was calculated. Seedlings longer than 0.33 times the average length of the five longest seedlings were considered to be of high vigour, and low vigour seedlings were shorter than this length.
Soybean seeds are treated with a pearling agent, which contains 1 mg/ml of N-[3-(1-piperidinyl)propoxy]-3-nitro-benzimidoyl-chloride monohydrochloride (Compound 3) in a 5% aqueous polyvinylalcohol solution. 100 seeds and 1 ml of pearling agent are filled into a glass vessel and while the vessel is rotated, the seeds are coated with the agent and then it is left to dry. For seeds treated this way, we obtained the following results when placed under the conditions of the CSVT test described in Example 7.

Mo 17 inbred maize line = assay: CSVT (Complex Stressing Vigour Test), seeds soaked in active agent, Mo 17 maize; format: in vivo; details: seeds soaked in 10 mg/l active agent, * = significant vs control P < 0.05
Procedure: as §1, with “darkness. At the end of the experiment the number of normally developing and ungerminated seeds were recorded. The length of the normal seedlings was measured and the average length of the five longest seedlings was calculated. Seedlings longer than 0.33 times the average length of the five longest seedlings were considered to be of high vigour, and low vigour seedlings were shorter than this length.” for “darkness.”

McCall soybeans = assay: CSVT, McCall soybeans; format: in vivo, soybean
Procedure: as §1, §2
When applying the CSVT test, the following results were obtained (Table 4.).

[1] = tested on: maize of low chilling tolerance (LT) population; assay: CSVT, maize population of low chilling tolerance (LT); format: in vivo
Procedure: as §1, §2
(§3) In the case of a further experiment with maize of low chilling tolerance (LT) and high chilling tolerance (HT) populations [Ref: P. Landi, E. Frascaroli, A. Lovato; EUPHYTICA 64 21-29 (1992)], the following positive effects were found (Table 3.).

bean cv. Seaway = assay: Frost tolerance of beans; format: in vivo; details: watering, 10 mg/l; −2° C. for 8 hours
Procedure: Seedlings of bean cv. Seaway were cultivated under normal conditions for the first two weeks, then they were treated with 10 mg/liter and 100 mg/liter concentration solutions of the examined active agents 2 and 1 days before the initiation of the frost tolerance experiments. In the experiment, the plants were kept at −2° C. for 8 hours, then grew under normal conditions for I week, and the survival ratio was determined. 4 trays were used for each experiment and 6 seeds were planted in each tray.

green peppers = assay: CSVT, green peppers; format: in vivo, pepper
Procedure: as §1, §2
Under the circumstances of the CSVT test, they increased the length of the sprouts and the roots along with the proportion of the high vigour seedlings. […]

[2] = tested on: maize of high chilling tolerance (HT) population; assay: CSVT, maize population of high chilling tolerance (HT); format: in vivo
Procedure: as §1, §2, §3

HMv09 inbred maize line = assay: CSVT, seeds soaked in active agent, HMv09 maize; format: in vivo; details: seeds soaked in 10 mg/l active agent
Procedure: as §1, with “darkness. At the end of the experiment the number of normally developing and ungerminated seeds were recorded. The length of the normal seedlings was measured and the average length of the five longest seedlings was calculated. Seedlings longer than 0.33 times the average length of the five longest seedlings were considered to be of high vigour, and low vigour seedlings were shorter than this length.” for “darkness.”

[3] = 100 seeds pearled with 1 ml of 1 mg/ml in 5% PVA

## Cl.O=[N+]([O-])c1cccc(C(Cl)=NOCCCN2CCCCC2)c1 [Compound 3, N-[3-(1-piperidinyl)propoxy]-3-nitro-benzimidoyl-chloride monohydrochloride]
Soybean cv. Bólyi 44
  Survival (%): 33* %
Bean plants (cv. Seaway)
  Survival (%): 39* %
Soybean seeds; [3]
  Ratio of high vigour plants (%), root: 58* %
  Ratio of high vigour plants (%), sprout: 63* %
Soybean seeds; PVA solution containing Compound 3 as pearling agent
  effect on ratio of high vigour plants and length of sprouts and roots: increase the ratio of high vigour plants significantly
Mo 17 inbred maize line
  Ratio of high vigour plants (%): 28* %
McCall soybeans
  Ratio of high vigour plants (%): 46* %
[1]
  Ratio of high vigour plants %, LT: 88* %
Bean cv. Seaway
  Survival (%): 40* %
Green peppers
  Ratio of high vigour plants (%): 45* %
[2]
  Ratio of high vigour plants %, HT: 94* %
HMv09 inbred maize line
  Ratio of high vigour plants (%): 40* %
